Experimental findings from patent publication US10851097B2, “4,5,6,7-tetrahydro-1H-imidazo[4,5-c]pyridine and 1,4,5,6,7,8-hexahydroimidazo[4,5-d]azepine derivatives as janus kinase inhibitors” (Topivert Pharma Limited, priority 2015, dated 2020) are described below.

pKd: −log10 of the molar value.

In one data set the test system is Jurkat cells. Kind of data set: Cell cytotoxicity assay in Jurkat cells (assay (c)). In kind it is cell-based, human. To be noted: 24 h, propidium iodide, normalised to DMSO control. As for the experimental part:
(c) Cell Cytotoxicity Assay
1×10^5 Jurkat cells (immortalised human T lymphocytes) are added to the appropriate number of wells of a 96 well plate in 100 μL of media (RPMI supplemented with 10% foetal bovine serum). 1 μL of DMSO control (final concentration 1.0% v/v) or test compound (final concentration 20, 5 or 1 μg/mL) is added to the wells and incubated at 37° C., 5% CO2. After 24 hours, the plate is centrifuged at 1200 rpm for 3 minutes and the supernatant discarded. Cells are then resuspended in 150 μL (final concentration 7.5 μg/mL) of propidium iodide (PI) in PBS and incubated at 37° C., 5% CO2 for 15 minutes. After 15 minutes, cells are analysed by flow cytometry (BD accuri) using the FL3 window. The % viability is calculated as the % of cells that are PI negative in the test wells normalised to the DMSO control.

The target of a further data set is T1, JAK1 (Homo sapiens, UniProt P23458).
T1 construct: purchased DiscoveRx (LeadHunter Discover Services, KINOMEscan)
Kind of data set: KINOMEscan enzyme binding assay (DiscoveRx), JAK1. To be noted: read-out: Dissociation Constant JAK1. The method, then: These assays may be conducted by DiscoveRx (formerly Ambit; San Diego, Calif.). The percentage inhibition produced by incubation with a test compound may be calculated relative to the non-inhibited control.

T1 sequence (P23458 866-1154 limits assumed): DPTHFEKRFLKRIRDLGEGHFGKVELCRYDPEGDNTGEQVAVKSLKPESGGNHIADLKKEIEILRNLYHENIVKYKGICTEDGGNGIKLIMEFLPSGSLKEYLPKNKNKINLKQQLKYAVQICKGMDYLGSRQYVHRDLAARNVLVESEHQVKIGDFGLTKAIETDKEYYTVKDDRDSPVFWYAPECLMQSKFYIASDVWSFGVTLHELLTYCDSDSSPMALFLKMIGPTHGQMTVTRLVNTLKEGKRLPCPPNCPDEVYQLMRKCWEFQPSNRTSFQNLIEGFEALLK

As to `CCc1cc(O)c(F)cc1-c1ccc2c(-c3nc4c([nH]3)CCN(C(=O)c3cnc(N(C)CCN5CCCC5=O)cn3)C4)n[nH]c2c1` [Example 2(k), 1-(2-((5-(2-(6-(2-ethyl-5-fluoro-4-hydroxyphenyl)-1H-indazol-3-yl)-4,5,6,7-tetrahydro-1H-imidazo[4,5-c]pyridine-5-carbonyl)pyrazin-2-yl)(methyl)amino)ethyl)pyrrolidin-2-one], in the data set with Jurkat cells, the “% viability at 1 μg/mL” value amounted to 93%. Further, on JAK1, the pKd was 9.00.
